Assay [1] has as its target T1, Proteasome component C5 (Saccharomyces cerevisiae S288c) (UniProt P23724).
T1 sequence (whole entry): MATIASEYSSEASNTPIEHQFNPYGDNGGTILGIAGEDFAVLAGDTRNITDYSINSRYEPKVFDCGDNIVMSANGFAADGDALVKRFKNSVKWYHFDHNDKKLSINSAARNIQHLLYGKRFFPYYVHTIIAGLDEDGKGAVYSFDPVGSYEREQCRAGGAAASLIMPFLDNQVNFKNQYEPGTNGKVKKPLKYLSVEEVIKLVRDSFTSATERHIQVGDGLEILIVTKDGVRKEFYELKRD
In words: Inhibition of post acid activity of yeast 20S proteasome at 80 uM.

In assay [2] the target is T2, Proteasome Macropain subunit PRE2 (Saccharomyces cerevisiae S288c) (UniProt P30656).
T2 sequence (whole entry): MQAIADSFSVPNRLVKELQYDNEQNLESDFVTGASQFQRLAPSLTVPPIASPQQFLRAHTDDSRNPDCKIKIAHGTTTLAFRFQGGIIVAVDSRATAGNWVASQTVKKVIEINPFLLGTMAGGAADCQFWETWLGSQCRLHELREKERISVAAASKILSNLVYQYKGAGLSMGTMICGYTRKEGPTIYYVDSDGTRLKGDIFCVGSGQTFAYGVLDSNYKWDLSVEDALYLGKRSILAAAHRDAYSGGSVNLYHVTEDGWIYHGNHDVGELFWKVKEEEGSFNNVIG
In words: Inhibition of chymotrypsin like activity of yeast 20S proteasome at 80 uM.

Assay [3] deals with T3, Proteasome Macropain subunit (Saccharomyces cerevisiae S288c) (UniProt P22141).
T3 sequence (whole entry): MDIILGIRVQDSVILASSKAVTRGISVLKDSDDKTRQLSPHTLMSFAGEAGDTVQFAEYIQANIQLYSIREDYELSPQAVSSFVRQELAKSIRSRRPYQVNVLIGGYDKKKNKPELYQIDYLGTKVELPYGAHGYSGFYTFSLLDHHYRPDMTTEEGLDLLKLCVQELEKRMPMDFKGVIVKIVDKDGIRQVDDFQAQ
The assay is described as follows: Inhibition of trypsin like activity of yeast 20S proteasome at 80 uM.

Assay [4] deals with T1, Proteasome component C5 (Saccharomyces cerevisiae S288c). The assay is described as follows: Activation of post acid activity of yeast 20S proteasome.
Assay [5] concerns the target T4, Proteasome Macropain subunit (Saccharomyces cerevisiae S288c, UniProt P22141).
T4 sequence (P22141 whole entry): T3 sequence (whole entry)
In words: Inhibition of trypsin like activity of yeast 20S proteasome.

Assay [6] has as its target T3, Proteasome Macropain subunit (Saccharomyces cerevisiae S288c). In words: Activation of trypsin like activity of yeast 20S proteasome.
Assay [7] concerns the target T5, Proteasome Macropain subunit PRE2 (Saccharomyces cerevisiae S288c, UniProt P30656).
T5 sequence (P30656 whole entry): T2 sequence (whole entry)
In words: Inhibition of chymotrypsin like activity of yeast 20S proteasome.

Assay [8] deals with T6, Proteasome component C5 (Saccharomyces cerevisiae S288c, UniProt P23724).
T6 sequence (P23724 whole entry): T1 sequence (whole entry)
In words: Inhibition of post acid activity of yeast 20S proteasome.

Assay [9] has as its target T3, Proteasome Macropain subunit (Saccharomyces cerevisiae S288c). In words: Inhibition of trypsin like activity of yeast 20S proteasome at 625 uM.
Assay [10] concerns the target T2, Proteasome Macropain subunit PRE2 (Saccharomyces cerevisiae S288c). In words: Inhibition of chymotrypsin like activity of yeast 20S proteasome at 625 uM.
The target of assay [11] is T1, Proteasome component C5 (Saccharomyces cerevisiae S288c). In words: (§1) Inhibition of post acid activity of yeast 20S proteasome at 625 uM.
The target of assay [12] is T2, Proteasome Macropain subunit PRE2 (Saccharomyces cerevisiae S288c). In words: Activation of chymotrypsin like activity of yeast 20S proteasome.
In assay [13] the target is T6, Proteasome component C5. Described as §1.

Residues, ends and D or L forms follow the SMILES beside them.

On to `CC(C)C[C@H](NC(=O)[C@H](CCC(=O)O)NC(=O)[C@@H](N)Cc1ccc(O)cc1)C(=O)O` (H-Tyr-Glu-Leu-OH), for which the inhibition in assay [1], in [2] and in assay [3] was < 10% in each case.
As to `CCCCCCCCCCCCCC(=O)N[C@H](C(=O)N[C@H](C(=O)N[C@H](C(=O)N[C@@H](Cc1ccccc1)C(=O)N[C@@H](CC(=O)O)C(=O)N[C@@H](Cc1ccc(O)cc1)C(=O)O)[C@@H](C)O)[C@@H](C)CC)[C@@H](C)O` (HELM PEPTIDE1{[CCCCCCCCCCCCCC(=O)[*:2]].T.I.T.F.D.Y}$$$$V2.0), in assay [2], the inhibition is < 10%. In assay [4], this compound came in with an Activity of 1.3. The compound also gave a Ki in [5] of 78 µM.
As to `CCCCCCCC(=O)N[C@H](C(=O)N[C@H](C(=O)N[C@H](C(=O)N[C@@H](Cc1ccc(O)cc1)C(=O)N[C@@H](CCCCN)C(=O)N[C@@H](Cc1ccccc1)C(=O)O)[C@@H](C)O)C(C)C)[C@@H](C)O` (HELM PEPTIDE1{[CCCCCCCC(=O)[*:2]].T.V.T.Y.K.F}$$$$V2.0), the values for the Activity in assay [6] and in assay [4] were 1.2 and 1.3, respectively. In assay [7], the affinity, expressed as Ki, was 20 µM.
In the case of `N[C@@H](Cc1ccc(O)cc1)C(=O)N[C@@H](CCC(=O)O)C(=O)N[C@@H](CC(=O)O)C(=O)O` (H-Tyr-Glu-Asp-OH), the inhibition in [1], in assay [2] and in assay [3] was < 10% throughout.
With `CCCCCCCCCCCCCCCCCC(=O)N[C@H](C(=O)N[C@H](C(=O)N[C@H](C(=O)N[C@@H](Cc1ccccc1)C(=O)N[C@@H](CC(=O)O)C(=O)N[C@@H](Cc1ccc(O)cc1)C(=O)O)[C@@H](C)O)[C@@H](C)CC)[C@@H](C)O` (HELM PEPTIDE1{[CCCCCCCCCCCCCCCCCC(=O)[*:2]].T.I.T.F.D.Y}$$$$V2.0), the Activity amounted to 1.6 in assay [6] and 1.3 in assay [4]. Further, in assay [7], the Ki was 39 µM.
As for `CCCCCCCCCCCC(=O)N[C@@H](Cc1ccc(O)cc1)C(=O)N[C@@H](CCC(=O)O)C(=O)N[C@@H](CC(C)C)C(=O)O` (HELM PEPTIDE1{[CCCCCCCCCCCC(=O)[*:2]].Y.E.L}$$$$V2.0), the inhibitory constant (Ki) at Proteasome component C5 [8] is 62 µM; in [5], > 80 µM. Moreover, the inhibition in assay [2] was < 10%.
In the case of `CCCCCCCC(=O)N[C@@H](Cc1ccc(O)cc1)C(=O)N[C@@H](CCC(=O)O)C(=O)N[C@@H](CC(C)C)C(=O)O` (HELM PEPTIDE1{[CCCCCCCC(=O)[*:2]].Y.E.L}$$$$V2.0), the inhibition in assay [1] is < 10%. The compound further showed an Activity in [6] of 1.9. The Ki in [7] is > 80 µM.
Turning to H-TITYEY-OH, the inhibition in [9], in [10] and in assay [11] was < 10% each time.
As for H-TVTYKL-OH, the inhibition in [9] and in assay [11] was < 10% in each case. Also, in assay [7], affinity was put at a Ki of 545 µM.
Regarding H-TITYDF-OH, the inhibition in assay [9] and in [10] was < 10% each time. In addition, the inhibitory constant (Ki) on Proteasome component C5 [8] was > 625 µM.
For the compound H-TVTYDY-OH, the inhibition in [9], in assay [10] and in [11] was < 10% each time.
Regarding `CCCCCCCCCCCCCCCC(=O)N[C@H](C(=O)N[C@H](C(=O)N[C@H](C(=O)N[C@@H](Cc1ccc(O)cc1)C(=O)N[C@@H](CCCCN)C(=O)N[C@@H](Cc1ccccc1)C(=O)O)[C@@H](C)O)C(C)C)[C@@H](C)O` (HELM PEPTIDE1{[CCCCCCCCCCCCCCCC(=O)[*:2]].T.V.T.Y.K.F}$$$$V2.0), the Activity in assay [12] came out at 1.6.
For H-TITYKF-OH, in [9], the inhibition is < 10%. Moreover, the Ki at Proteasome component C5 [13] is 260 µM; in assay [7], 151 µM.
For the compound `CCCCCCCCCCCCCCCC(=O)OC`, the inhibition in assay [1], in assay [2] and in [3] was < 10% each time.
As for `CCCCCCCCCCCCCCC(N)C(=O)O` (stereo not drawn), the inhibition in assay [1], in [2] and in assay [3] was < 10% in each case.

The inhibition is the change of the read-out against control, counted positive when it falls. High values mean a strong effect, low ones a weak effect. What is called Ki is a dissociation constant, usually derived from enzyme kinetics or from competition with a known ligand. A higher Ki goes with lower affinity.

For the origin of these results see ChEMBL document CHEMBL1148514, “Development of lipopeptides for inhibiting 20S proteasomes” (Bioorg Med Chem Lett, 2006).
